Assay results reported in patent US20070249545A1, “DIHYDROFOLATE REDUCTASE INHIBITION BY EPIGALLOCATECHIN GALLATE COMPOUNDS” (priority 2004, published 2007).
pIC50, pKd, pKi: −log10 of the molar value.

How the values were obtained:
p16 [1] = test: p16 methylation status in Jurkat T cells; assay type: cell-based, human; details: EGCG 20 μM, 7-days treatment
L1210 cells = test: EGCG cytotoxicity / growth of L1210 cells; assay type: cell-based, mouse
Protocol: L1210 cells were plated at a density of 10,000 cells/ml in 96-well plates with a “standard folate” RPMI 1640 medium supplemented with 10% FCS. Reversion experiments were carried out in an HT medium and/or by adding 50 μM ascorbic acid (AA). Cell injury was evaluated by a calorimetric assay for mitochondrial function using the MTT test.^29
The effect of different EGCG concentrations on L1210 cell growth after 29 h of treatment at two different folic acid concentrations was determined. The cells were previously adapted over a period of 2-3 days to grow in folate-free RPMI 1640 medium supplemented with 10% dialyzed FCS and 2 mM glutamine. This medium is subsequently referred to as LF (low folate). For the cytotoxicity assay, the cells were grown in LF media supplemented with folic acid (3 μM or 300 nM). Treatments were carried out in triplicate, and each experiment performed at least twice. Cell growth was determined by two different methods, Coulter counter Z2 and hemocytometer (FIG. 7). IC50 values were determined at each folic acid concentration added to the medium.
The growth-inhibitory effects of 10 μM EGCG at various folic acid concentrations were determined at two different time intervals. L1210 cells were cultured in a LF medium supplemented with the corresponding folic acid concentration. The data were obtained by using a Coulter counter and hemocytometer and expressed assuming a zero percentage of growth inhibition for untreated control (FIG. 8). Cells were maintained in the corresponding medium with 100 μg/ml of penicillin and streptomycin at 37° C. in a humid 7.5% CO2, […] environment for all the experiments.

chicken liver DHFR = biological target: T1, chicken liver DHFR (Gallus gallus, UniProt P00378); test: Kinetic analysis of inhibition of chicken liver DHFR; assay type: biochemical
T1 construct: from tissue; host or cells: chicken liver
T1 sequence (P00378 whole entry): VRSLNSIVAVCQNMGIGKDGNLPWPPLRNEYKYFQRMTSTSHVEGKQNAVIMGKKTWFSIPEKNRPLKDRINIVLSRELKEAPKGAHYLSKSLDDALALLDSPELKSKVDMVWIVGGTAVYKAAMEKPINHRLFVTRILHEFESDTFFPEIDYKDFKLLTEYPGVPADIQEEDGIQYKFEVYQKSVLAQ
Protocol: The activity of DHFR was determined at 25° C. by following the decrease of NADPH and DHF by absorbance measurements at 340 nm (ε=11,800 M^−1 cm^−1) by using a Perkin-Elmer Lambda-2 spectrophotometer with cuvettes of 1.0 cm light-path.
Experiments were performed at pH 7.58 and 25° C. in a buffer containing 2-(N-morpholino)ethanesulfonic acid (MES, 25 mM), sodium acetate (25 mM), tris(hydroxymethyl)aminomethane (Tris 50 mM), and NaCl (100 mM). To prevent the oxidation of catechins, the reaction mixture contained 1 mM ascorbic acid. The pH of the reaction was measured before and after of the experiment. The assays were started by the addition of enzyme. In the absence of the enzyme, the rate of change of absorbance was negligible.
Lineweaver-Burk plots were made of the reaction of chicken liver DHFR (3.3 nM) with DHF and NADPH. For initial velocity inhibition experiments one substrate (NADPH) was held constant at saturating concentration (100 μM) while the concentration of the other substrate (DHF) and the inhibitor (EGCG) were varied (FIG. 3). […] This initial concentration of saturating NADPH was considered as constant after the consumption of 10 μM DHF by the addition of enzyme. Data were fitted by nonlinear regression to the integrated form (31) of the Michaelis equation. The fitting was performed by using Marquart's algorithm (32) implemented in the Sigma Plot 2.01 for Windows (33). […]

free rHDHFR = biological target: T2, free rHDHFR (Homo sapiens, UniProt P00374); test: Binding of EGCG to free DHFR by quenching of enzyme fluorescence; details: read-out: dissociation constant
T2 sequence (P00374 1-187): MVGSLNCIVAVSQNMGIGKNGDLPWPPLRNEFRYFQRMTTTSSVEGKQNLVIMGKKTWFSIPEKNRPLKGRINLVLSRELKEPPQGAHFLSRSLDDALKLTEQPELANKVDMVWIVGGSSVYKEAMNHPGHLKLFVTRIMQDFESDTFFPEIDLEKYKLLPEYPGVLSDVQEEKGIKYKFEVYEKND
Protocol: The binding of EGCG to free DHFR was determined by following the decrease in enzyme fluorescence that occurs on formation of the enzyme-inhibitor complex. […] The binding of EGCG quenches this fluorescence. The data for the resulting titration curves were used for dissociation constant determinations.

NF-κB = test: TNF-α-mediated activation of NF-κB (Western blot); assay type: cell-based; details: 24 hours, then TNF-α, IκBα, phospho-IκBα, Akt
Protocol: To check if the antifolate activity of EGCG is related to the suppression of activation of NF-κB, cells were grown in the presence of EGCG or MTX. After 24 hours, the cells were induced with TNF-α and the content of proteins related to NF-κB activation (IκBα, phospho-IκBα, Akt and phosphor-Akt) was checked by Western blot (FIG. 16A).

p16 [2] = test: p16 methylation status in Caco-2 cells; details: EGCG 20 μM, 7-days treatment
[3] = biological target: T3, recombinant human DHFR (rHDHFR) (Homo sapiens, UniProt P00374); test: Inhibition of human DHFR by tea catechins; assay type: biochemical
T3 sequence (P00374 1-187): T2 sequence (P00374 1-187)

With (−)-epigallocatechin gallate [EGCG] the p16 methylation pattern (p16 [1]) was “changed from methylated to unmethylated”, the “growth inhibition in HT medium containing ascorbic acid, NAC or SOD” value (L1210 cells; L1210, EGCG 20 μM) was “completely removed the inhibitory effect” and the “growth inhibition with ascorbic acid in the medium” value (L1210 cells; L1210, EGCG 20 μM, antioxidant ascorbic acid) was “partially lifted”. For the same substance, the “growth inhibition in HT medium, low folate” value (L1210 cells; L1210, LF medium (30 nM folic acid), EGCG 1 μM) was “completely reversed”, the “growth inhibition in HT medium” value (L1210 cells; L1210, hypoxanthine-thymidine (HT) medium, EGCG 20 μM) was “high level of inhibition reversal” and the pIC50 (L1210 cells; RPMI 1640 medium with 10% FCS (standard folate)) was 4.70. For the same substance, the pKi (chicken liver DHFR; chicken liver DHFR, from secondary plot, read-out: KI as a competitive inhibitor of DHF) was 4.99, the “inhibition after preincubation and 500-fold dilution” value (chicken liver DHFR; enzyme 1.65 μM preincubated with 20 to 50 μM inhibitor for 30 min, 500-fold dilution into DHF/NADPH assay) was “did not produce any measurable inhibition” and the pKd (free rHDHFR) was 6.10. For the same substance, the “effects on proteins related to NF-κB activation, with folinic acid” value (NF-κB) was “highly reversed by folinic acid”, the p16 methylation pattern (p16 [2]) was “changed from methylated to unmethylated” and the pKi [3] was 5.70. For the same substance, the “inhibition of rHDHFR activity” value [3] was “potent inhibitors”.
